Measured values: patent US9926324B2, “Heteroaromatic compounds as PI3 kinase modulators and methods of use” (Calitor Sciences, LLC, priority 2012, dated 2018)
Read-outs that look alike come from different tables or passages of the source.

What was measured:
[1] = Compound stability in human liver microsomes; type: in vitro ADME; conditions: pH 7.4; for half-life at 5 μM: human liver microsomes 0.5 mg protein/mL, compound 5 μM, NADPH 1.0 mM, 37° C., read-out: Human T1/2; for CLint scaled at 5 μM: human liver microsomes, in vivo CLint extrapolated
Procedure: (§1) Human or rat liver microsomes incubations were conducted in duplicate in polypropylene tubes. The typical incubation mixtures consisted of human or rat liver microsomes (0.5 mg protein/mL), compounds of interest (5 μM) and NADPH (1.0 mM) in a total volume of 200 μL potassium phosphate buffer (PBS, 100 mM, pH=7.4). Compounds were dissolved in DMSO and diluted with PBS such that the final concentration of DMSO was 0.05%. The enzymatic reactions were commenced with the addition of […] after a 3-min preincubation and incubated in a water bath open to the air at 37° C. Reactions were terminated at various time points (0, 5, 10, 15, 30, 60 min) by adding equal volume of ice-cold acetonitrile. The samples were stored at −80° C. until LC/MS/MS assays.
(§2) The concentrations of compounds in the incubation mixtures of human or rat liver microsomes were determined by a LC/MS/MS method. The ranges of the linearity in the concentration range were determined for each tested compounds.
(§3) A parallel incubation was performed using denatured microsomes as the negative control, and reactions were terminated at various time points (0, 15, 60 min) after incubation at 37° C.
(§4) Dextromethorphan (70 μM) was selected as the positive control, and reactions were terminated at various time points (0, 5, 10, 15, 30, 60 min) after incubation at 37° C. Both positive and negative control samples were included in each assay to ensure the integrity of the microsomal incubation system.
(§5) The concentrations of compounds in human or rat liver microsome incubations were plotted as a percentage of the relevant zero time point control for each reaction. The in vivo CLint were extrapolated (ref: Naritomi Y, Terashita S, Kimura S, Suzuki A, Kagayama A, Sugiyama Y. Prediction of human hepatic clearance from in vivo animal experiments and in vitro metabolic studies with liver microsomes from animals and humans. Drug Metabolism and Disposition 2001, 29: 1316-1324).

PI3K p110α/p85α (h) = target: T1, PI3K p110α/p85α (h) (Homo sapiens, UniProt P42336); assay: PI3K p110α/p85α (h) non-radioactive HTRF assay; type: biochemical
T1 construct: purchased Millipore UK Ltd (assay service)
Procedure: (§6) PI3K p110α/p85α (h) is incubated in assay buffer containing 10 μM phosphatidylinositol 4,5-bisphosphate and MgATP (concentration as required). The reaction is initiated by the addition of the ATP solution. After incubation for 30 minutes at room temperature, the reaction is stopped by the addition of stop solution containing EDTA and biotinylated phosphatidylinositol-3,4,5-trisphosphate. Finally, detection buffer is added, which contains europium-labelled anti-GST monoclonal antibody, GST-tagged GRP1 PH domain and streptavidin allophycocyanin. The plate is then read in timeresolved fluorescence mode and the homogenous time-resolved fluorescence (HTRF) signal is determined according to the formula HTRF=10000×(Em665 nm/Em620 nm).
(§7) The kinase assays described herein were performed at Millipore UK Ltd, Dundee Technology Park, Dundee DD2 1SW, UK.

mTOR (h) = target: T2, mTOR (h) (Homo sapiens, UniProt P42345); assay: mTOR (h) kinase assay (33P-ATP, filter); type: biochemical
T2 construct: purchased Millipore UK Ltd (assay service)
Procedure: mTOR (h) is incubated with 50 mM HEPES pH 7.5, 1 mM EDTA, 0.01% Tween 20, 2 mg/mL substrate, 3 mM Manganese Chloride and [γ-^33P-ATP] (specific activity approx. 500 cpm/pmol, concentration as required). The reaction is initiated by the addition of the MnATP mix. After incubation for 40 minutes at room temperature, the reaction is stopped by the addition of 3% phosphoric acid solution. 10 μL of the reaction is then spotted onto a P30 filtermat and washed three times for 5 minutes in 75 mM phosphoric acid and once in methanol prior to drying and scintillation counting.
as §7

[2] = Pharmacokinetic profiles in rats after intravenous and oral administration; type: in vivo; conditions: for F: oral dose generally 5 or 10 mg/kg; for AUC(0-t) / half-life / Vd: rat, plasma; for Vd: read-out: Vss
Procedure: The compounds disclosed herein are assessed in pharmacokinetic studies in mice, rats, dogs or monkeys. The compounds are administered as a water solution, 2% HPMC+1% TWEEN® 80 in water solution, 5% DMSO+5% solutol in saline, 4% MC suspension or capsule. For the intravenous administration, the animals are generally given at 1 or 2 mg/kg dose. For the oral (p.o.) dosing, mice and rats are generally given 5 or 10 mg/kg dose, and dogs and monkeys are generally given 10 mg/kg dose. The blood samples (0.3 mL) are drawn at 0.25, 0.5, 1.0, 2.0, 3.0, 4.0, 6.0, 8.0, 12 and 24 h time points or 0.083, 0.25, 0.5, 1.0, 2.0, 4.0, 6.0, 8.0 and 24 h time points and centrifuged at 3,000 or 4000 rpm for 2 to 10 min. The plasma solutions are collected, stored at −20° C. or −70° C. until analyzed by LC/MS/MS as described above.

[3] = Compound stability in rat liver microsomes; type: in vitro ADME; conditions: for half-life at 5 μM / CLint scaled at 5 μM: pH 7.4; for half-life at 5 μM: read-out: Rat T1/2; for CLint scaled at 5 μM: rat liver microsomes, in vivo CLint extrapolated
Procedure: as §1, §2, §3, §4, §5

U87MG glioblastoma cells = assay: Tumor xenograft model (U87MG), tumor growth inhibition; type: in vivo, athymic nude mice; conditions: 14 days
Procedure: The efficacy of compounds disclosed herein was evaluated in a standard murine model of tumorigenesis. Human tumor cells (U87MG glioblastoma cells from ATCC) were expended in culture, harvested, and injected subcutaneously onto the rear flank of 6-7 week old female athymic nude mice (BALB/cA nu/nu, Hunan SLAC Laboratory Animal, Co.) (n=6-10 for vehicle group and for each dosing group). When tumors reached a volume of 100-250 mm^3, animals were randomly divided into vehicle control (for example, 5% DMSO+70% Captisol® (30%), 7% HCl (pH1), 18% Captisol® (30%); or 7% DMSO, 7% HCl (pH1), 70% Captisol® (30%), 16% Captisol® (30%), or the like) and compound groups. Subsequent administration of compound by oral gavage begins anywhere from day 0 to day 15 post tumor cell challenge and generally continues with once a day for the duration of the experiment.
Progression of tumor growth is assessed by tumor volumes and recorded as a function of time. The long (L) and short (W) axes of the subcutaneous tumors were measured with calipers twice weekly, and the tumor volume (TV) calculated as (L×W^2)/2). TGI was calculated from the difference between the median tumor volumes of vehicle-treated and drug-treated mice, expressed as a percentage of the median tumor volume of the vehicle-treated control group, by the following relation:
Initial statistical analysis is done by repeated measures analysis of variance (RMANOVA), followed by Scheffe psot hoc testing for multiple comparisons. Vehicle alone (5% DMSO+70% Captisol® (30%), 7% HCl (pH1), 18% Captisol® (30%); or 7% DMSO, 7% HCl (pH1), 70% Captisol® (30%), 16% Captisol® (30%), or the like) is the negative control.

PI3K p110β/p85α (h) = target: T3, PI3K p110β/p85α (h) (Homo sapiens, UniProt P42338); assay: PI3K p110β/p85α (h) non-radioactive HTRF assay; type: biochemical
T3 construct: purchased Millipore UK Ltd (assay service)
Procedure: as §6, with “(p110β/p85α)” for “p110α/p85α”, “phosphatidylinositol-4,5-bisphosphate” for “phosphatidylinositol 4,5-bisphosphate”, “MgATP mix.” for “ATP solution.”, “streptavidin-allophycocyanin.” for “streptavidin allophycocyanin.”
as §7

PI3K (p110δ/p85α) (h) = target: T4, PI3K (p110δ/p85α) (h) (Homo sapiens, UniProt O00329); assay: PI3K p110δ/p85α (h) non-radioactive HTRF assay; type: biochemical
T4 construct: purchased Millipore UK Ltd (assay service)
Procedure: as §6, with “(p110δ/p85α)” for “p110α/p85α”, “phosphatidylinositol-4,5-bisphosphate” for “phosphatidylinositol 4,5-bisphosphate”, “MgATP mix.” for “ATP solution.”, “streptavidin-allophycocyanin.” for “streptavidin allophycocyanin.”
as §7

[4] = rat liver microsomes 0.5 mg protein/mL, compound 5 μM, NADPH 1.0 mM, 37° C.

T1 sequence (P42336 whole entry): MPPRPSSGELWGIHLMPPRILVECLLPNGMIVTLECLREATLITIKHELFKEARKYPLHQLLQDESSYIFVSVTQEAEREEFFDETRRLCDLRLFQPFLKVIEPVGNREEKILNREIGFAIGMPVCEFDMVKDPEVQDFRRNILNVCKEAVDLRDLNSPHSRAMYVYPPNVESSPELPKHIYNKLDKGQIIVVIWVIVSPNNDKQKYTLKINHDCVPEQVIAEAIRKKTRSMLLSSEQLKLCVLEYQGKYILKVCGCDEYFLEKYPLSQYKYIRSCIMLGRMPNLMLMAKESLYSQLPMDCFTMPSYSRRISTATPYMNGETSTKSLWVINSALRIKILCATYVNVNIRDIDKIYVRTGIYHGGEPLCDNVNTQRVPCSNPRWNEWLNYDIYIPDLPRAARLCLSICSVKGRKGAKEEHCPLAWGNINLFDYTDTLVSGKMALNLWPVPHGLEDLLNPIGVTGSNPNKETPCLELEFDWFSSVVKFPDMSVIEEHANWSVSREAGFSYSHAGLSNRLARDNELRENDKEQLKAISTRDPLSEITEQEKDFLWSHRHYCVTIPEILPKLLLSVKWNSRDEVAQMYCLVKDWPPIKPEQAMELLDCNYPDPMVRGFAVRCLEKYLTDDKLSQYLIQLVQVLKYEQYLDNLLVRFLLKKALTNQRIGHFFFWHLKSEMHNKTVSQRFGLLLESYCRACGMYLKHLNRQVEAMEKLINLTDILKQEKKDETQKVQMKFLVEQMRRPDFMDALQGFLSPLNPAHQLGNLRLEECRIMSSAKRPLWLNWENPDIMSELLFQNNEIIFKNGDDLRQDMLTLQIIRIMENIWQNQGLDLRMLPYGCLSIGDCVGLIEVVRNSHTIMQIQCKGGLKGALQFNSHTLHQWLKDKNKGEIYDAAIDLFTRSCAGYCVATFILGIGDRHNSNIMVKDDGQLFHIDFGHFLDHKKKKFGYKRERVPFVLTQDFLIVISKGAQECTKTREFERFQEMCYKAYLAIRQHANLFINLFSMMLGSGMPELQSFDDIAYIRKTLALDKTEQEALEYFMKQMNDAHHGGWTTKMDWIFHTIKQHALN
T1 sequence (P27986 whole entry partner): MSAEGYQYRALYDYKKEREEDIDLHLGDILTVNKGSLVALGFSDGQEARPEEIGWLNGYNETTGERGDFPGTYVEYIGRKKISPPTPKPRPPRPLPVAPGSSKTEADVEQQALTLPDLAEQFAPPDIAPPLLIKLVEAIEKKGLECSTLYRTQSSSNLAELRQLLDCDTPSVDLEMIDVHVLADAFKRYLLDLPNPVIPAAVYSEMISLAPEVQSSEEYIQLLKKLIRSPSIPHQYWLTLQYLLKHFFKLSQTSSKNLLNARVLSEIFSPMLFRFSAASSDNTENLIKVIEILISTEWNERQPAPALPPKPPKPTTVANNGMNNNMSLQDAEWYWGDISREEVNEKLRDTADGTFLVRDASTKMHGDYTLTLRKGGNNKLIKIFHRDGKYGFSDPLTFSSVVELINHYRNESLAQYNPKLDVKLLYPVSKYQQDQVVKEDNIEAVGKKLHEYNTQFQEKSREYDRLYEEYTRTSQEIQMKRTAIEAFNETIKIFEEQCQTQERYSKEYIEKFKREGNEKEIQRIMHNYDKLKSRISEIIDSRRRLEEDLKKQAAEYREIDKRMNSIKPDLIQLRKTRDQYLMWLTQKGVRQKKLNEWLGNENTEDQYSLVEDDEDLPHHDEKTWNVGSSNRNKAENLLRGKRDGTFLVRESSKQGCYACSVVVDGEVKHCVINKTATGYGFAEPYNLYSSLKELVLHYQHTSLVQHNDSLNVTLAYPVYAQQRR
T3 sequence (P42338 whole entry): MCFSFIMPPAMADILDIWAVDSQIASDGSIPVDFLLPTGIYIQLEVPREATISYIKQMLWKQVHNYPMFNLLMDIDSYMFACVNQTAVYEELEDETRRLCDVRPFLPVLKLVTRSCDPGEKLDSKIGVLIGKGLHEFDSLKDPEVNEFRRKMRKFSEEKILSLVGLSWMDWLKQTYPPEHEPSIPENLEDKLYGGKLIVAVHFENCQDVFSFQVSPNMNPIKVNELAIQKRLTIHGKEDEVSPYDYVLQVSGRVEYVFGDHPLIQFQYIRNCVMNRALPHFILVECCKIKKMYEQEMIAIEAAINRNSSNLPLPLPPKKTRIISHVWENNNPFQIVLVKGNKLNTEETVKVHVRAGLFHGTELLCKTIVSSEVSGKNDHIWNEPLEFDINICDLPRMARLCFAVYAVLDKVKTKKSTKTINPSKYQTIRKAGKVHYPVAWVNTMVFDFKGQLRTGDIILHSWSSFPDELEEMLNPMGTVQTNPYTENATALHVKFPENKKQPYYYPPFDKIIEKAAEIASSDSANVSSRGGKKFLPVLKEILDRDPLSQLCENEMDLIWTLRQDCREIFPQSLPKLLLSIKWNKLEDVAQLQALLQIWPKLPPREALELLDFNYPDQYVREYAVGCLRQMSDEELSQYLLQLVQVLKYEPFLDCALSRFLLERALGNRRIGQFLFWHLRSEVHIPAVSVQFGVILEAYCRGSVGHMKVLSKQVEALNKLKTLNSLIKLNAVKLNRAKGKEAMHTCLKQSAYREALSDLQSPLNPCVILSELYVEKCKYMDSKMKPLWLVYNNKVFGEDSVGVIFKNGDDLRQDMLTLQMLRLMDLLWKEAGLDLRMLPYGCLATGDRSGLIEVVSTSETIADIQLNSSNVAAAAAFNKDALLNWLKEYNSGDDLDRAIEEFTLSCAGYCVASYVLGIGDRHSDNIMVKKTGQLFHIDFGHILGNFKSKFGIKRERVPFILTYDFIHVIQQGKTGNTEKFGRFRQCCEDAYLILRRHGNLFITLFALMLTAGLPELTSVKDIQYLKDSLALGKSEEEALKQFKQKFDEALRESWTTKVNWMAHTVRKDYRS
T3 sequence (P27986 whole entry partner): as the sequence (P27986 whole entry partner) above
T4 sequence (O00329 whole entry): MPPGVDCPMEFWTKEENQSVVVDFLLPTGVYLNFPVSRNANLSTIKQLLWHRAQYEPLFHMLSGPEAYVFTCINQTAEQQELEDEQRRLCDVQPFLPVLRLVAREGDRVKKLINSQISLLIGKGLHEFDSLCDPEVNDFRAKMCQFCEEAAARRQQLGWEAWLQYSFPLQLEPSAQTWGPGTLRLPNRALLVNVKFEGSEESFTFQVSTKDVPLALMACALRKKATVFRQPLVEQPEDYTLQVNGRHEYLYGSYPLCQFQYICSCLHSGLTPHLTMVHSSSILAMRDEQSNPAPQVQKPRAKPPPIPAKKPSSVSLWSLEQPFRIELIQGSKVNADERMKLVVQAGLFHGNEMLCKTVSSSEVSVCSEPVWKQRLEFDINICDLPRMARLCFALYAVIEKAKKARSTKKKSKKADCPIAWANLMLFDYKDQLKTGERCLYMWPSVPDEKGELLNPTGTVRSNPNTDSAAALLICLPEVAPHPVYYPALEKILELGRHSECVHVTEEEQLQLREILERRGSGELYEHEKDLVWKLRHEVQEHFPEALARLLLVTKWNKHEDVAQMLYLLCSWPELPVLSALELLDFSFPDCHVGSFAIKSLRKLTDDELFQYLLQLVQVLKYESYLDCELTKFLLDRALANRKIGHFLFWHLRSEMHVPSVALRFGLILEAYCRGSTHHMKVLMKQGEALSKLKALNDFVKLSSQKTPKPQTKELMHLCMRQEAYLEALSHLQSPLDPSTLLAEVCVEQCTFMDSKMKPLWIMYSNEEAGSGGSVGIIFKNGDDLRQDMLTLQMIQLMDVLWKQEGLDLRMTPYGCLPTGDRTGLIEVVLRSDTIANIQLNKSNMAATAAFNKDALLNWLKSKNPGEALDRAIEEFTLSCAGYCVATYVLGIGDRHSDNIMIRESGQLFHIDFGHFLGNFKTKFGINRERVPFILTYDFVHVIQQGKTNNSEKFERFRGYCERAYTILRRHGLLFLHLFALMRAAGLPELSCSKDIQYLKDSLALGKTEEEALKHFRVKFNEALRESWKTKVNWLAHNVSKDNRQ
T4 sequence (P27986 whole entry partner): as the sequence (P27986 whole entry partner) above

SMILES | half-life at 5 μM [1] [h] | CLint scaled at 5 μM [1] [mL/min/kg] | IC50 (PI3K p110α/p85α (h)) [nM] | IC50 (mTOR (h)) [nM] | F ([2]; iv dose 1 mg/kg) [%] | Cl/F ([2]; iv dosing 1 mg/kg) [mL/min/kg] | AUC(0-t) ([2]; iv dosing 1 mg/kg) [ng·h/mL] | half-life ([2]; iv dosing 1 mg/kg) [h] | Vd ([2]; iv dosing 1 mg/kg) [L/kg] | half-life at 5 μM [3, 4] [h] | CLint scaled at 5 μM [3] [mL/min/kg] | F ([2]; iv dose 2 mg/kg) [%] | Cl/F ([2]; iv dosing 2 mg/kg) [mL/min/kg] | AUC(0-t) ([2]; iv dosing 2 mg/kg) [ng·h/mL] | half-life ([2]; iv dosing 2 mg/kg) [h] | Vd ([2]; iv dosing 2 mg/kg) [L/kg] | IC50 (PI3K p110β/p85α (h)) [nM] | IC50 (PI3K (p110δ/p85α) (h)) [nM] | also measured
C#Cc1cnc2ccc(-c3cnc(OC)c(NS(=O)(=O)c4ccc(F)cc4)c3)nn12 [Ex. 1, N-(5-(3-ethynylimidazo[1,2-b]pyridazin-6-yl)-2-methoxypyridin-3-yl)-4-fluorobenzenesulfonamide] | 2.69 | 10.8 | 14 | 23 | 96.0 | 2.33 | 6540 | 6.39 | 1 | 1.62 | 25.5 | – | – | – | – | – | – | – | –
COc1ncc(-c2ccc3ncc(C#CCO)n3n2)cc1NS(=O)(=O)c1ccc(F)cc1 [Ex. 2, 4-fluoro-N-(5-(3-(3-hydroxyprop-1-yn-1-yl)imidazo[1,2-b]pyridazin-6-yl)-2-methoxypyridin-3-yl)benzenesulfonamide] | – | – | 6 | 29 | – | – | – | – | – | – | – | 56.1 | 1.67 | 20700 | 3.42 | 0.22 | – | – | TGI % U87MG (U87MG glioblastoma cells; 1 mg/kg oral gavage): 6%; TGI % U87MG (U87MG glioblastoma cells; 3 mg/kg oral gavage): 21%; TGI % U87MG (U87MG glioblastoma cells; 10 mg/kg oral gavage): 35%
COc1ncc(-c2ccc3ncc(C#CC(C)O)n3n2)cc1NS(=O)(=O)c1ccc(F)cc1 (stereo not shown) [Ex. 3, 4-fluoro N (5 (3 (3 hydroxybut-1-yn-1-yl)imidazo[1,2-b]pyridazin-6-yl)-2-methoxypyridin-3-yl)benzenesulfonamide] | 2.4 | 12.1 | 12 | 16 | – | – | – | – | – | 0.843 | 49.1 | 61.5 | 1.2 | 29000 | 3.11 | 0.16 | – | – | –
C#Cc1cnc2ccc(-c3cnc(OC)c(NS(=O)(=O)c4ccc(F)cc4F)c3)nn12 [Ex. 8, N-(5-(3-ethynylimidazo[1,2-b]pyridazin-6-yl)-2-methoxypyridin-3-yl)-2,4-difluorobenzenesulfonamide] | 4.04 | 7.17 | 6 | 12 | – | – | – | – | – | 1.25 | 33.2 | 115.1 | 2.17 | 16600 | 3.02 | 0.37 | – | – | –

Continued, in another order:

half-life at 5 μM [1] [h] | CLint scaled at 5 μM [1] [mL/min/kg] | IC50 (PI3K p110α/p85α (h)) [nM] | IC50 (mTOR (h)) [nM] | F ([2]; iv dose 1 mg/kg) [%] | Cl/F ([2]; iv dosing 1 mg/kg) [mL/min/kg] | AUC(0-t) ([2]; iv dosing 1 mg/kg) [ng·h/mL] | half-life ([2]; iv dosing 1 mg/kg) [h] | Vd ([2]; iv dosing 1 mg/kg) [L/kg] | half-life at 5 μM [3, 4] [h] | CLint scaled at 5 μM [3] [mL/min/kg] | F ([2]; iv dose 2 mg/kg) [%] | Cl/F ([2]; iv dosing 2 mg/kg) [mL/min/kg] | AUC(0-t) ([2]; iv dosing 2 mg/kg) [ng·h/mL] | half-life ([2]; iv dosing 2 mg/kg) [h] | Vd ([2]; iv dosing 2 mg/kg) [L/kg] | IC50 (PI3K p110β/p85α (h)) [nM] | IC50 (PI3K (p110δ/p85α) (h)) [nM] | SMILES | also measured
3.54 | 8.18 | – | – | 97.16 | 1.67 | 10300 | 2.33 | 0.35 | 0.731 | 56.6 | – | – | – | – | – | 28 | 2 | CC#Cc1cnc2ccc(-c3cnc(OC)c(NS(=O)(=O)c4ccc(F)cc4F)c3)cn12 [Ex. 18, 2,4-difluoro-N-(2-methoxy-5-(3-(prop-1-yn-1-yl)imidazo[1,2-a]pyridin-6-yl)pyridin-3-yl)benzenesulfonamide] | –
7.07 | 4.1 | – | – | – | – | – | – | – | – | – | 54.66 | 3.83 | 10100 | 2.58 | 0.55 | 28 | 4 | COc1ncc(-c2ccc3ncc(C#N)n3c2)cc1NS(=O)(=O)c1ccc(F)cc1F [Ex. 19, N-(5-(3-cyanoimidazo[1,2-a]pyridin-6-yl)-2-methoxypyridin-3-yl)-2,4-difluorobenzenesulfonamide] | Rat T1/2 [3, 4]: ∞
